# Where “and” joins values, the source holds several entries; their conditions need not be identical. Equal entries are not always repeated. Where two headings read alike, the source gives them in different places.
# What was measured:
# zebrafish embryos = assay: acute toxicity test from 48–120 hpf based on the OECD FET test; assay type: in vivo, zebrafish (Danio rerio); settings: zebrafish embryos exposed 48–120 hpf; for LC50, class symbol: highest concentration set by water solubility
# Excerpt: (§1) Twenty embryos per treatment were exposed to 5 concentrations of compound of interest in a 10× dilution factor from 48–120 hpf, which is the experimental time in which EDCs will be screened posteriorly. Embryos were exposed from 48–120 hpf rather than 0–96 hpf or 0–120 hpf to avoid unspecific toxicity outside of the EDC testing period, which have been chosen on the basis that endocrine pathways, e.g., thyroid metabolism, are not fully functional until 40–55 hpf in zebrafish embryos. Stock solutions of chemicals to be tested were freshly prepared in exposure medium. The highest concentration for each compound was selected according to its water solubility (Table S1). Exposures were performed in glass vessels to assure maximum bioavailability for hydrophobic compounds, and medium was not exchanged during the experiment.
# vitellogenin 1 (vtg1) = assay: vtg1 gene expression (qPCR) in exposed zebrafish embryos; settings: for EC50: read-out: EC50 vtg1
# cyp19a1b - mRNA [1] = settings: cited from earlier work; for LogEC50 (cyp19a1b - mRNA): log of EC50 in μM
# [2] = system: cytochrome P450 2k22 (cyp2k22); assay: cyp2k22 gene expression (qPCR) in exposed zebrafish embryos; settings: for EC50: read-out: EC50 cyp2k22
# [3] = system: brain aromatase (cyp19a1b); assay: cyp19a1b gene expression (qPCR) in exposed zebrafish embryos; assay type: in vivo, zebrafish (Danio rerio); settings: for LogEC50 (cyp19a1b mRNA): log of EC50 in μM, 48-120 h, our study; for EC50: zebrafish embryos exposed 48–120 hpf, mRNA by qPCR
# vtg - blood [4] = settings: cited from earlier work
# [5] = molecular target: iodothyronine deiodinase 2 (dio2); assay: dio2 gene expression (qPCR) in exposed zebrafish embryos; assay type: in vivo, zebrafish (Danio rerio); settings: read-out: EC50 dio2
# [6] = listed physicochemical property, source not given; cited from earlier work
# cyp19a1b - fluorescence = settings: 0-96 h, cited from earlier work; for LogEC50 (cyp19a1b - fluorescence): log of EC50 in μM
# [7] = system: cytosolic sulfotransferase 2 family 2 (sult2st3); assay: sult2st3 gene expression (qPCR) in exposed zebrafish embryos; assay type: in vivo, zebrafish (Danio rerio); settings: for maximum FI / maximum average overexpression level above controls, sult2st3: exposed 48–120 hpf, times above controls; for EC50: read-out: EC50 sult2st3
# [8] = acute toxicity test from 48–120 hpf based on the OECD FET test; assay type: in vivo, zebrafish (Danio rerio); settings: in vivo; zebrafish embryos exposed 48–120 hpf
# Excerpt: as §1
# sult2st3 - cyp2k22 mRNA [9] = assay: androgenic markers considered together (sult2st3 - cyp2k22 mRNA), zebrafish embryos
# sult2st3 - cyp2k22 mRNA [10] = settings: 96-120 h, ref [31] (supplement list), cited from earlier work
# thyroid peroxidase (tpo) = assay: tpo gene expression (qPCR) in exposed zebrafish embryos; assay type: in vivo, zebrafish (Danio rerio); settings: Danio rerio, read-out: EC50 tpo
# cyp19a1b - vtg1 mRNA = assay: estrogenic markers considered together (cyp19a1b - vtg1 mRNA), zebrafish embryos
# vtg - mRNA = settings: 14 days (juveniles), cited from earlier work
# cyp19a1b - mRNA [11] = settings: 14 days (adults), cited from earlier work
# vtg1 - mRNA = settings: 0-168 h; ref [10] (supplement list: Chen 2018); cited from earlier work
# vtg - blood [12] = settings: cited from earlier work; for LogEC50 (vtg - blood): log of EC50 in μM
# ERE-GFP - fluorescence = settings: 0-120 h, cited from earlier work
# [13] = log of EC50 in μM, 48-120 h, our study
# [14] = zebrafish embryos exposed 48–120 hpf, mRNA by qPCR
# [15] = ref [3] (supplement list: Brion 2012)
# [16] = * mean of an approximate range, ref [21] (supplement list: Molina 2018)
# [17] = log of EC50 in μM, ref [21] (supplement list)
# [18] = NIL 1 µM co-exposed with TES 1 µM, reaching control levels
# [19] = FUL 1 µM co-exposed with E2 1 µM
structure (smiles),measurement,setting,value
"C=CC1(C)OC(=O)N(c2cc(Cl)cc(Cl)c2)C1=O (centres unmarked) [VIN, vinclozolin]","LC50, class symbol",zebrafish embryos,-
"C[C@]12CCC(=O)C=C1CC[C@@H]1[C@@H]2CC[C@@]2(C)[C@H]1CC[C@]2(C)O [17α-MT, 17α-methyltestosterone]",LogEC50 (vtg1 mRNA),vitellogenin 1 (vtg1); [13],0.301
same,EC50,"vitellogenin 1 (vtg1); zebrafish embryos exposed 48–120 hpf, mRNA by qPCR (END: downregulation)",2000 nM
same,EC50,"cyp19a1b - mRNA [1]; 0-144h, * mean of an approximate range, ref [28] (supplement list: Trant 2001)",~170 nM
same,LogEC50 (cyp19a1b - mRNA),"cyp19a1b - mRNA [1]; 0-144h, ref [28] (supplement list)",-0.7696
same,EC50,[2]; [14],50 nM
same,LogEC50 (cyp19a1b mRNA),[3],-0.2076
same,EC50,[3],620 nM
same,LC50,zebrafish embryos,90.2 µM
same,EC50,"vtg - blood [4]; 12 days (adults), ref [30] (supplement list: Ankley 2001), read-out: EC50 (vtg - blood)",660 nM
same,EC50,"vtg - blood [4]; 21 days (adults), * mean of an approximate range, ref [29] (supplement list: Pawlowski 2004), read-out: EC50 (vtg1 - blood)",~2 nM
same,LogEC50 (vtg - blood),"vtg - blood [4]; log of EC50 in μM, 12 days (adults), ref [30] (supplement list)",-0.1805
same,LogEC50 (vtg1 - blood),"vtg - blood [4]; log of EC50 in μM, 21 days (adults), ref [29] (supplement list)",-2.699
same,EC50,[5]; [14],90 nM
same,Water solubility,[6],33.90 mg/L
same,EC50,cyp19a1b - fluorescence; [15],40 nM
same,LogEC50 (cyp19a1b - fluorescence),cyp19a1b - fluorescence; ref [3] (supplement list),-1.398
same,"maximum FI / maximum average overexpression level above controls, sult2st3",[7],4.64–8.97
same,EC50,[7]; [14],100 nM
"C[C@]12CC[C@H]3[C@@H](CCC4=CC(=O)CC[C@@H]43)[C@@H]1CC[C@@H]2O [NAN, nandrolone]",EC50,vitellogenin 1 (vtg1); Danio rerio,1720 nM
same,EC50,[2]; Danio rerio,110 nM
same,EC50,[3]; Danio rerio,200 nM
same,LC50,[8],497 µM
same,EC50,[5]; Danio rerio,80 nM
same,EC50,[7]; Danio rerio,130 nM
same,"maximum FI / maximum average overexpression level above controls, sult2st3",[7],4.64–8.97
"CC/C(=C(/CC)c1ccc(O)cc1)c1ccc(O)cc1 [DES, diethylstilbestrol]",EC50,"cyp19a1b - mRNA [1]; 2-48 h, * mean of an approximate range, ref [6] (supplement list: Kishida 2001)",~5.5 nM
same,LogEC50 (cyp19a1b - mRNA),"cyp19a1b - mRNA [1]; 2-48 h, ref [6] (supplement list)",-2.26
same,EC50,[3]; Danio rerio,10 nM
same,LogEC50 (cyp19a1b mRNA),[3],-2
same,"LC50, class symbol",zebrafish embryos,-
same,EC50,cyp19a1b - fluorescence; [15],0.01 nM
same,LogEC50 (cyp19a1b - fluorescence),cyp19a1b - fluorescence; ref [3] (supplement list),-5
"C[C@]12CC[C@H]3[C@@H](CCC4=CC(=O)CC[C@@]43C)[C@@H]1CC[C@@H]2O [TES, testosterone]",EC50,vitellogenin 1 (vtg1); Danio rerio,1460 nM
same,EC50,"cyp19a1b - mRNA [1]; 0-72 h, * mean of an approximate range, ref [27] (supplement list: Mouriec 2009)",~1000 nM
same,LogEC50 (cyp19a1b - mRNA),"cyp19a1b - mRNA [1]; 0-72 h, ref [27] (supplement list)",0
same,EC50,"sult2st3 - cyp2k22 mRNA [9]; Danio rerio, read-out: EC50 (sult2st3 - cyp2k22 mRNA)",440 nM
same,LogEC50 (sult2st3 - cyp2k22 mRNA),sult2st3 - cyp2k22 mRNA [9]; [13],-0.3565
same,EC50,[2]; Danio rerio,740 nM
same,"maximum average overexpression level above controls, cyp2k22","[2]; exposed 48–120 hpf, times above controls",4.01
same,LogEC50 (sult2st3 - cyp2k22 mRNA),sult2st3 - cyp2k22 mRNA [10]; log of EC50 in μM,-1.222
same,EC50,sult2st3 - cyp2k22 mRNA [10]; read-out: EC50 (sult2st3 - cyp2k22 mRNA),60 nM
same,EC50,thyroid peroxidase (tpo),20 nM
same,EC50,cyp19a1b - fluorescence; [15],1030 nM
same,LogEC50 (cyp19a1b - fluorescence),cyp19a1b - fluorescence; ref [3] (supplement list),0.01284
same,EC50,[7]; Danio rerio,140 nM
same,"maximum FI / maximum average overexpression level above controls, sult2st3",[7],7.33 and 4.64–8.97
same,EC50,"cyp19a1b - vtg1 mRNA; Danio rerio, read-out: EC50 (cyp19a1b - vtg1 mRNA)",1110 nM
same,LogEC50 (cyp19a1b - vtg1 mRNA),cyp19a1b - vtg1 mRNA; [13],0.04532
"CC(C)(c1ccc(O)cc1)c1ccc(O)cc1 [BPA, bisphenol A]","EC50 (vtg1 - mRNA), class symbol","vitellogenin 1 (vtg1); 48-120 h, our study",n.e.
same,effect on expression of vtg1,vitellogenin 1 (vtg1); exposed 48–120 hpf,did not affect
same,EC50,"cyp19a1b - mRNA [1]; 0-72 h, ref [20] (supplement list: Saeed 2016)",220 nM
same,EC50,"cyp19a1b - mRNA [1]; 72-96 h, * mean of an approximate range, ref [5] (supplement list: Chung 2011)",~3000 nM
same,LogEC50 (cyp19a1b - mRNA),"cyp19a1b - mRNA [1]; 0-72 h, ref [20] (supplement list)",-0.6576
same,LogEC50 (cyp19a1b - mRNA),"cyp19a1b - mRNA [1]; 72-96 h, ref [5] (supplement list)",0.4771
same,EC50,vtg - mRNA; [16],~240 nM
same,LogEC50 (vtg - mRNA),vtg - mRNA; [17],-0.6198
same,EC50,[3]; Danio rerio,4990 nM
same,LogEC50 (cyp19a1b mRNA),[3],0.6981
same,EC50,cyp19a1b - mRNA [11]; [16],~24 nM
same,LogEC50 (cyp19a1b - mRNA),cyp19a1b - mRNA [11]; [17],-1.62
same,"EC50 (vtg1 - mRNA), class symbol",vtg1 - mRNA,n.e.
same,LC50,[8],41.6 µM
same,EC50,"vtg - blood [4]; 43 days (adults), * mean of an approximate range, ref [22] (supplement list: Sohoni 2001), read-out: EC50 (vtg - blood)",~1750 nM
same,LogEC50 (vtg - blood),"vtg - blood [4]; log of EC50 in μM, 43 days (adults), ref [22] (supplement list)",0.243
same,EC50,"vtg - blood [12]; 14 days (adults), ref [14] (supplement list: Brian 2005)",650 nM
same,EC50,"vtg - blood [12]; 28 days (juveniles), * mean of an approximate range, ref [13] (supplement list: Van den Belt 2004)",~2630 nM
same,LogEC50 (vtg - blood),"vtg - blood [12]; 14 days (adults), ref [14] (supplement list)",-0.1871
same,LogEC50 (vtg - blood),vtg - blood [12]; ref [13] (supplement list),0.42
same,EC50,"cyp19a1b - fluorescence; * mean of an approximate range, ref [18] (supplement list: Le Fol 2017)",~6250 nM
same,EC50,cyp19a1b - fluorescence; ref [2] (supplement list: Petersen 2013),7400 nM
same,EC50,cyp19a1b - fluorescence; [15],3300 nM
same,LogEC50 (cyp19a1b - fluorescence),cyp19a1b - fluorescence; ref [2] (supplement list),0.8692
same,LogEC50 (cyp19a1b - fluorescence),cyp19a1b - fluorescence; ref [3] (supplement list),0.5185
same,LogEC50 (cyp19a1b - fluorescence),cyp19a1b - fluorescence; ref [18] (supplement list),0.7959
same,EC50,ERE-GFP - fluorescence; ref [19] (supplement list: Green 2016),1230 nM
same,LogEC50 (ERE-GFP - fluorescence),"ERE-GFP - fluorescence; log of EC50 in μM, ref [19] (supplement list)",0.08991
"CC1(C)NC(=O)N(c2ccc([N+](=O)[O-])c(C(F)(F)F)c2)C1=O [NIL, nilutamide]",rescue of TES-induced cyp2k22 overexpression,[2]; [18],totally rescued
same,LC50,[8],32.9 µM
same,Water solubility,[6],4.19 mg/L
same,rescue of TES-induced sult2st3 overexpression,[7]; [18],totally rescued
"C[C@]12CC[C@@H]3c4ccc(O)cc4C[C@@H](CCCCCCCCC[S+]([O-])CCCC(F)(F)C(F)(F)F)[C@H]3[C@@H]1CC[C@@H]2O (some centres unmarked) [FUL, fulvestrant]",FI vtg1 after co-exposure with antagonist,vitellogenin 1 (vtg1); [19],205.50
same,rescue effect: decrease of vtg1 compared to single exposure of E2,vitellogenin 1 (vtg1); [19],47.89%
same,FI cyp19a1b after co-exposure with antagonist,[3]; [19],57.17
same,"LC50, class symbol",zebrafish embryos,-
same,rescue effects at 10 µM antagonist,cyp19a1b - vtg1 mRNA; FUL 10 µM co-exposed with E2,no more rescue effects than those observed at 1 µM

# Reference: article PMC6479714, “Multiplex Analysis Platform for Endocrine Disruption Prediction Using Zebrafish” (International Journal of Molecular Sciences, 2019)
